Measurements taken from patent US20230085307A1, “PYRIDAZINONE COMPOUND AND HERBICIDE” (NISSAN CHEMICAL CORPORATION, priority 2019, published 2023).

Legend:
[1] = system: rice flat sedge; experiment: Test Example 3: herbicidal effect by foliage application, Wagner pot (Table 18, symbol E); type: in vivo, rice flat sedge (Cyperus iria); details: 320 g/ha
How it was run: (§1)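 Plants were sown in alluvial soil held under 0.1–0.5 cm standing water and grown 14 days in a greenhouse at 25–30 °C. An emulsifiable formulation, water-diluted to the set dose, was then sprayed onto the foliage, and effects were scored three weeks later using previously defined criteria.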

[2] = system: barnyard grass; experiment: Test Example 5: herbicidal effect by foliage application, plastic box (Table 20, symbol H); type: in vivo, barnyard grass (Echinochloa crus-galli); details: foliage application, 320 g/ha
How it was run: (§2)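 Foliar spray test: emulsion formulation diluted in water to a set application rate, sprayed onto 14-day-old plants raised in diluvial soil at 25° C to 30° C under glass. Both herbicidal effect and crop effect rated visually three weeks later.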

[3] = system: Italian ryegrass; experiment: Test Example 5: herbicidal effect by foliage application, plastic box (Table 20, symbol K); type: in vivo, Italian ryegrass (Lolium multiflorum); details: foliage application, 320 g/ha
How it was run: as §2

[4] = system: Chinese sprangletop; experiment: Test Example 3: herbicidal effect by foliage application, Wagner pot (Table 18, symbol D); type: in vivo, chinese sprangletop (Leptochloa chinensis); details: 320 g/ha
How it was run: as §1

[5] = system: wild oat; experiment: Test Example 5: herbicidal effect by foliage application, plastic box (Table 20, symbol I); type: in vivo, wild oat (Avena fatua); details: foliage application, 320 g/ha
How it was run: as §2

[6] = system: redroot pigweed; experiment: Test Example 4: herbicidal effect by soil treatment (Table 19, symbol N); type: in vivo, redroot pigweed (Amaranthus retroflexus)
How it was run: (§3)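 Step 1: sow seeds in sterilized diluvial soil, cover ~1.5 cm. Step 2: spray diluted emulsion onto soil surface at predetermined rate. Step 3: greenhouse, 25–30° C, three weeks. Step 4: grade effect on each plant by earlier criteria.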

[7] = system: chickweed; experiment: Test Example 5: herbicidal effect by foliage application, plastic box (Table 20, symbol P); type: in vivo, common chickweed (Stellaria media); details: foliage application, 320 g/ha, three weeks after application
How it was run: as §2

[8] = system: velvetleaf; experiment: Test Example 5: herbicidal effect by foliage application, plastic box (Table 20, symbol M); type: in vivo, velvetleaf (Abutilon theophrasti); details: foliage application, 320 g/ha
How it was run: as §2

[9] = system: windgrass; experiment: Test Example 5: herbicidal effect by foliage application, plastic box (Table 20, symbol L); type: in vivo, windgrass (Apera spica-venti); details: foliage application, 320 g/ha
How it was run: as §2

[10] = system: lambsquarters; experiment: Test Example 5: herbicidal effect by foliage application, plastic box (Table 20, symbol O); type: in vivo, lambsquarters (Chenopodium album); details: foliage application, 320 g/ha
How it was run: as §2

[11] = system: persian speedwell; experiment: Test Example 5: herbicidal effect by foliage application, plastic box (Table 20, symbol R); type: in vivo, Persian speedwell (Veronica persica); details: foliage application, 320 g/ha
How it was run: as §2

[12] = system: barnyard grass; experiment: Test Example 3: herbicidal effect by foliage application, Wagner pot (Table 18, symbol H); type: in vivo, barnyard grass (Echinochloa crus-galli); details: 320 g/ha
How it was run: as §1

[13] = system: southern crabgrass; experiment: Test Example 5: herbicidal effect by foliage application, plastic box (Table 20, symbol F); type: in vivo, southern crabgrass (Digitaria ciliaris); details: foliage application, 320 g/ha
How it was run: as §2

[14] = system: Italian ryegrass; experiment: Test Example 4: herbicidal effect by soil treatment (Table 19, symbol K); type: in vivo, Italian ryegrass (Lolium multiflorum)
Description: (§4) [Test Example 4] Herbicidal Effect Test by Soil Treatment
(§5) Sterilized diluvial soil was placed in a plastic box having a length of 21 cm, a width of 13 cm, and a depth of 7 cm. The seeds of each of southern crabgrass, green foxtail, barnyard grass, wild oat, blackgrass, Italian ryegrass, windgrass, velvetleaf, redroot pigweed, lambsquarters, chickweed, false cleavers, persian speedwell, corn, soybean, rice, wheat, beet, and rapeseed were sowed in a spot-like manner and covered with the soil having a thickness of about 1.5 cm. Subsequently, the emulsion agent of the compound of the present invention prepared according to Formulation Example 2 was diluted with water so as to achieve a predetermined herbicide amount, and the diluted emulsion agent was uniformly applied to the surface of the soil with a small-sized spray. The plastic box was placed in a greenhouse at 25° C. to 30° C. for growth of the plants. Three weeks after the herbicide application, the effect of the herbicide on each plant was evaluated according to the criteria of Test Example 1.

[15] = system: redroot pigweed; experiment: Test Example 5: herbicidal effect by foliage application, plastic box (Table 20, symbol N); type: in vivo, redroot pigweed (Amaranthus retroflexus); details: foliage application, 320 g/ha, three weeks after application
How it was run: as §2

[16] = system: wild oat; experiment: Test Example 4: herbicidal effect by soil treatment (Table 19, symbol I); type: in vivo, wild oat (Avena fatua)
Description: as §4, §5

[17] = system: blackgrass; experiment: Test Example 5: herbicidal effect by foliage application, plastic box (Table 20, symbol J); type: in vivo, blackgrass (Alopecurus myosuroides); details: foliage application, 320 g/ha
How it was run: as §2

[18] = system: green foxtail; experiment: Test Example 5: herbicidal effect by foliage application, plastic box (Table 20, symbol G); type: in vivo, green foxtail (Setaria viridis); details: foliage application, 320 g/ha
How it was run: as §2

[19] = system: southern crabgrass; experiment: Test Example 4: herbicidal effect by soil treatment (Table 19, symbol F); type: in vivo, southern crabgrass (Digitaria ciliaris); details: AAH 320 g/ha
Description: as §4, §5

[20] = system: blackgrass; experiment: Test Example 4: herbicidal effect by soil treatment (Table 19, symbol J); type: in vivo, blackgrass (Alopecurus myosuroides); details: AAH 320 g/ha
Description: as §4, §5

[21] = system: windgrass; experiment: Test Example 4: herbicidal effect by soil treatment (Table 19, symbol L); type: in vivo, windgrass (Apera spica-venti); details: AAH 320 g/ha
Description: as §4, §5

[22] = system: velvetleaf; experiment: Test Example 4: herbicidal effect by soil treatment (Table 19, symbol M); type: in vivo, velvetleaf (Abutilon theophrasti); details: AAH 320 g/ha
Description: as §4, §5

[23] = system: barnyard grass; experiment: Test Example 4: herbicidal effect by soil treatment (Table 19, symbol H); type: in vivo, barnyard grass (Echinochloa crus-galli); details: AAH 320 g/ha
Description: as §4, §5

[24] = system: green foxtail; experiment: Test Example 4: herbicidal effect by soil treatment (Table 19, symbol G); type: in vivo, green foxtail (Setaria viridis); details: AAH 320 g/ha
How it was run: as §3

[25] = system: lambsquarters; experiment: Test Example 4: herbicidal effect by soil treatment (Table 19, symbol O); type: in vivo, lambsquarters (Chenopodium album); details: AAH 320 g/ha
Description: as §4, §5

[26] = system: chickweed; experiment: Test Example 4: herbicidal effect by soil treatment (Table 19, symbol P); type: in vivo, common chickweed (Stellaria media); details: AAH 320 g/ha
Description: as §4, §5

[27] = amount of applied herbicide 320 g/ha

Cc1nn(C)c(=O)c(-c2c(-c3ccc(OC(F)(F)F)cc3)sc3ccccc23)c1O [1-031]
herbicidal effect on E (rice flat sedge), rating 0-5 [1]: 5 (Herbicidal rate of 90% or more (almost completely withered)) | herbicidal effect grade, H: barnyard grass ([2]; three weeks after application): 3 (Herbicidal rate of 40% or more and less than 70%) | herbicidal effect grade, K: Italian ryegrass ([3]; three weeks after application): 5 (Herbicidal rate of 90% or more (almost completely withered)) | herbicidal effect on D (Chinese sprangletop), rating 0-5 [4]: 0 (Herbicidal rate of 5% or less (almost no effect)) | herbicidal effect grade, I: wild oat ([5]; three weeks after application): 0 (Herbicidal rate of 5% or less (almost no effect)) | herbicidal effect rating, N: redroot pigweed [6, 27]: 4 (Herbicidal rate of 70% or more and less than 90%) | herbicidal effect grade, P: chickweed [7]: 5 (Herbicidal rate of 90% or more (almost completely withered)) | herbicidal effect grade, M: velvetleaf ([8]; three weeks after application): 5 (Herbicidal rate of 90% or more (almost completely withered)) | herbicidal effect grade, L: windgrass ([9]; three weeks after application): 0 (Herbicidal rate of 5% or less (almost no effect)) | herbicidal effect grade, O: lambsquarters ([10]; three weeks after application): 5 (Herbicidal rate of 90% or more (almost completely withered)) | herbicidal effect grade, R: persian speedwell ([11]; three weeks after application): 5 (Herbicidal rate of 90% or more (almost completely withered)) | herbicidal effect on H (barnyard grass), rating 0-5 [12]: 4 (Herbicidal rate of 70% or more and less than 90%) | herbicidal effect grade, F: southern crabgrass ([13]; three weeks after application): 0 (Herbicidal rate of 5% or less (almost no effect)) | herbicidal effect rating, K: Italian ryegrass [14, 27]: 3 (Herbicidal rate of 40% or more and less than 70%) | herbicidal effect grade, N: redroot pigweed [15]: 5 (Herbicidal rate of 90% or more (almost completely withered)) | herbicidal effect rating, I: wild oat [16, 27]: 0 (Herbicidal rate of 5% or less (almost no effect)) | herbicidal effect grade, J: blackgrass ([17]; three weeks after application): 3 (Herbicidal rate of 40% or more and less than 70%) | herbicidal effect grade, G: green foxtail ([18]; three weeks after application): 4 (Herbicidal rate of 70% or more and less than 90%)

Cc1nn(C)c(=O)c(-c2c(-c3ccc(CSC(C)C)cc3)sc3ccccc23)c1O [1-243]
herbicidal effect on E (rice flat sedge), rating 0-5 [1]: 4 (Herbicidal rate of 70% or more and less than 90%) | F: southern crabgrass, herbicidal effect rating [19]: 0 (Herbicidal rate of 5% or less (almost no effect)) | effect on barnyard grass (H) ([2]; 3 weeks after application): 4 (Herbicidal rate of 70% or more and less than 90%) | J: blackgrass, herbicidal effect rating [20]: 0 (Herbicidal rate of 5% or less (almost no effect)) | effect on Italian ryegrass (K) ([3]; 3 weeks after application): 3 (Herbicidal rate of 40% or more and less than 70%) | herbicidal effect on D (Chinese sprangletop), rating 0-5 [4]: 4 (Herbicidal rate of 70% or more and less than 90%) | L: windgrass, herbicidal effect rating [21]: 0 (Herbicidal rate of 5% or less (almost no effect)) | effect on wild oat (I) ([5]; 3 weeks after application): 2 (Herbicidal rate of 20% or more and less than 40%) | M: velvetleaf, herbicidal effect rating [22]: 1 (Herbicidal rate of 5% or more and less than 20%) | N: redroot pigweed, herbicidal effect rating ([6]; AAH 320 g/ha): 4 (Herbicidal rate of 70% or more and less than 90%) | H: barnyard grass, herbicidal effect rating [23]: 0 (Herbicidal rate of 5% or less (almost no effect)) | effect on velvetleaf (M) ([8]; 3 weeks after application): 5 (Herbicidal rate of 90% or more (almost completely withered)) | effect on windgrass (L) ([9]; 3 weeks after application): 0 (Herbicidal rate of 5% or less (almost no effect)) | effect on lambsquarters (O) ([10]; 3 weeks after application): 4 (Herbicidal rate of 70% or more and less than 90%) | effect on persian speedwell (R) ([11]; 3 weeks after application): 5 (Herbicidal rate of 90% or more (almost completely withered)) | herbicidal effect on H (barnyard grass), rating 0-5 [12]: 5 (Herbicidal rate of 90% or more (almost completely withered)) | G: green foxtail, herbicidal effect rating [24]: 0 (Herbicidal rate of 5% or less (almost no effect)) | effect on southern crabgrass (F) ([13]; 3 weeks after application): 3 (Herbicidal rate of 40% or more and less than 70%) | K: Italian ryegrass, herbicidal effect rating ([14]; AAH 320 g/ha): 0 (Herbicidal rate of 5% or less (almost no effect)) | O: lambsquarters, herbicidal effect rating [25]: 3 (Herbicidal rate of 40% or more and less than 70%) | P: chickweed, herbicidal effect rating [26]: 0 (Herbicidal rate of 5% or less (almost no effect)) | I: wild oat, herbicidal effect rating ([16]; AAH 320 g/ha): 0 (Herbicidal rate of 5% or less (almost no effect)) | effect on blackgrass (J) ([17]; 3 weeks after application): 2 (Herbicidal rate of 20% or more and less than 40%) | effect on green foxtail (G) ([18]; 3 weeks after application): 4 (Herbicidal rate of 70% or more and less than 90%)
